We go through 10 substances from patent publication US9387221B2, “SDF-1 binding nucleic acids and the use thereof in cancer treatment” (NOXXON Pharma AG, priority 2010, dated 2016).

Data set [1] concerns biotinylated human D-SDF-1. The data set can be described thus: Competitive pull-down binding assay. As to conditions: for binding affinity in competitive pull-down binding assay vs. 192-A10-001: aptamer level, reference 192-A10-001. The procedure:
In order to compare different D-SDF-1 binding aptamers, a competitive ranking assay was performed. For this purpose the most affine aptamer available was radioactively labeled (see above) and served as reference. […] An excess of de- and renatured non-labeled D-RNA aptamer variants was added to different concentrations (e.g. 2, 10, and 50 nM) with the labeled reference aptamer to parallel binding reactions. The aptamers to be tested competed with the reference aptamer for target binding, thus decreasing the binding signal in dependence of their binding characteristics.

The target in another data set is SDF-1 (Homo sapiens, UniProt P48061). The data set can be described thus: Inhibition of SDF-1-induced chemotaxis, Jurkat cells. The format is cell-based. The note with it: for influence of the PEG-moiety on Spiegelmers potency to inhibit SDF-1 induced chemotaxis: Spiegelmer coupled to 40 kDa PEG at the 5′-end; for IC50: Spiegelmer, Jurkat cells migrating towards 0.3 nM human SDF-1, 3 h, 37° C., read-out: IC50, cell culture in vitro chemotaxis assay. On the procedure: The human T cell leukemia cell line Jurkat, the human leukemic monocyte lymphoma cell line U937, the human pre-B cell leukemia cell line BV-173 and human pre-B ALL cell line Nalm-6 express CXCR4. […] All cells used were obtained from the DSMZ (Braunschweig). All cell lines were cultivated at 37° C. and 5% CO2 in RPMI 1640 medium with Glutamax (Invitrogen, Karlsruhe, Germany) which contains 10% fetal bovine serum, 100 units/ml penicillin and 100 μg/ml streptomycin (Invitrogen, Karlsruhe, Germany). One day before the experiment, cells were seeded in a new T175 flask with a density of 0.3×10^6/ml (Jurkat, U937, BV-173) or 0.75×10^6/ml (Nalm-6), respectively.
For the experiment, cells were centrifuged (5 min at 300 g), resuspended, counted and washed once with 15 ml HBH (Hanks balanced salt solution containing 1 mg/ml bovine serum albumin and 20 mM HEPES; Invitrogen, Karlsruhe, Germany). Then the cells were resuspended at 1.33×10^6/ml (Jurkat, U937, BV-173) or 2.67×10^6/ml (Nalm-6), respectively. Cells were then allowed to migrate through the porous membranes of the filter plates for three hours towards a solution containing SDF-1 and various amounts of Spiegelmer. The stimulation solutions (SDF-1+various concentrations of Spiegelmer) were made up as 10× solutions in a 0.2 ml low profile 96-tube plate. 212 μl HBH were pipetted into the lower compartments of the transport plate and 23.5 μl of the stimulation solutions were added. All conditions were made up as triplicates. After 20 to 30 min the filter plate was inserted into the plate containing the stimulation solutions and 75 μl of a cell suspension with 1.33×10^6/ml or 2.67×10^6/ml, respectively, were added to the wells of the filter plate (1×10^5 or 2×10^5 cells/well). The cells were then allowed to migrate for 3 h at 37° C. For calibration, 0, 10 and 30 μl of the cell suspension was added to 235, 225 and 205 μl HBH, respectively, in wells of a separate 96-well plate. After 3 hours incubation, the insert plate was removed and 30 μl resazurin working solution (440 μM in PBS) were added to the lower wells and to the wells of the calibration plate. The plates were then incubated at 37° C. for 2.5 h. After incubation, 100 μl of each well were transferred to a black 96 well plate.
For evaluation, fluorescence values were corrected for background fluorescence (no cells in well). Then the difference between experimental conditions with and without SDF-1 was calculated. The value for the sample without Spiegelmer (SDF-1 only) was set 100% and the values for the samples with Spiegelmer were calculated as percent of this. For a dose-response curve the percent-values were plotted against Spiegelmer concentration and the IC50-value (concentration of Spiegelmer at which 50% of the activity without Spiegelmer is present) was determined graphically from the resulting curve.

The subject of data set [2] is biotinylated human D-SDF-1. The data set can be described thus: Direct pull-down binding assay. The note with it: aptamer (D-RNA), 37° C.; read-out: equilibrium binding constant KD, pull-down binding assay. The procedure:
The affinity of aptamers to biotinlayted human D-SDF-1 was measured in a pull-down binding assay format at 37° C. Aptamers were 5′-phosphate labeled by T4 polynucleotide kinase (Invitrogen, Karlsruhe, Germany) using [γ-^32P]-labeled ATP (Hartmann Analytic, Braunschweig, Germany). The specific radioactivity of labeled aptamers was 200,000-800,000 cpm/pmol. Aptamers were incubated after de- and renaturation at 10, 20, 30 or 40 pM concentration at 37° C. in selection buffer (20 mM Tris-HCl pH 7.4; 137 mM NaCl; 5 mM KCl; 1 mM MgCl2; 1 mM CaCl2; 0.1% [w/vol] Tween-20) together with varying amounts of biotinlayted human D-SDF-1 for 4-12 hours in order to reach equilibrium at low concentrations. Selection buffer was supplemented with 10 μg/ml human serum albumin (Sigma-Aldrich, Steinheim, Germany), and 10 μg/ml yeast RNA (Ambion, Austin, USA) in order to prevent adsorption of binding partners with surfaces of used plasticware or the immobilization matrix. The concentration range of biotinlayted human D-SDF-1 was set from 8 pM to 100 nM; total reaction volume was 1 ml. Peptide and peptide-aptamer complexes were immobilized on 1.5 μl Streptavidin Ultralink Plus particles (Pierce Biotechnology, Rockford, USA) which had been preequilibrated with selection buffer and resuspended in a total volume of 6 μl. Particles were kept in suspension for 30 min at the respective temperature in a thermomixer. Immobilized radioactivity was quantitated in a scintillation counter after detaching the supernatant and appropriate washing. The percentage of binding was plotted against the concentration of biotinlayted human D-SDF-1 and dissociation constants were obtained by using software algorithms (GRAFIT; Erithacus Software; Surrey U.K.) assuming a 1:1 stoichiometry.

In a further data set the target is human SDF-1α (Homo sapiens, UniProt P48061). The data set can be described thus: Surface plasmon resonance measurement (Biacore 2000). The format is binding. As to conditions: Spiegelmer (L-RNA), 37° C. The procedure:
The Biacore 2000 instrument (Biacore AB, Uppsala, Sweden) was used to analyze binding of Spiegelmers to human SDF-1α. When coupling of human SDF-1α was to be achieved via amine groups, human SDF-1α was dialyzed against water for 1-2 h (Millipore VSWP mixed cellulose esters; pore size, […]) to remove interfering amines. CM4 sensor chips (Biacore AB, Uppsala, Sweden) were activated before protein coupling by a 35-μl injection of a 1:1 dilution of 0.4 M NHS and 0.1 M EDC at a flow of 5 μl/min. Human MCP-1 or human SDF-1α was then injected in concentrations of 0.1-1.5 μg/ml at a flow of 2 μl/min until the instrument's response was in the range of 1000-2000 RU (relative units). Unreacted NHS esters were deactivated by injection of 35 μl ethanolamine hydrochloride solution (pH 8.5) at a flow of 5 μl/min. The sensor chip was primed twice with binding buffer and equilibrated at 10 μl/min for 1-2 hours until the baseline appeared stable. For all proteins, kinetic parameters and dissociation constants were evaluated by a series of Spiegelmer injections at concentrations of 1000, 500, 250, 125, 62.5, 31.25, and 0 nM in selection buffer (Tris-HCl, 20 mM; NaCl, 137 mM; KCl, 5 mM; CaCl2, 1 mM; MgCl2, 1 mM; Tween20, 0.1% [w/v]; pH 7.4). In all experiments, the analysis was performed at 37° C. using the Kinject command defining an association time of 180 and a dissociation time of 360 seconds at a flow of 10 μl/min. Data analysis and calculation of dissociation constants (KD) was done with the BIAevaluation 3.0 software (BIACORE AB, Uppsala, Sweden) using the Langmuir 1:1 stochiometric fitting algorithm.

For data set [3], the system named is SDF-1 induced sprouting, rings from rat aorta. In words: Aortic ring sprouting assay. As to conditions: 10 nM SDF-1 + 1 μM Spiegelmer, 6 days. The format is cell-based. On the procedure:
After 6 to 7 days, sprouting (i.e. outgrowth of endothelial cells) was analysed by taking pictures and determining a sprouting index.
Aortae from male rats were obtained from Bagheri Life sciences (Berlin, Germany). The aortae were prepared freshly and transported on ice in MCDB 131-Medium (Invitrogen, Karlsruhe, Germany) containing 50 units/ml penicillin, 50 μg/ml streptomycin (both Invitrogen, Karlsruhe, Germany) and 2.5 μg/ml fungizone (Cambrex, USA).
For an experiment a single aorta was transferred to a cell culture dish together with the medium and residual connective tissue was removed. Then the aorta was cut with a scalpel into rings of about 1 to 2 mm length. The rings were washed intensively (at least five times) in Medium199 (Invitrogen, Karlsruhe, Germany) and then placed in wells of a 24 well plate, containing 450 μl of collagen solution per well. […]
Sprouting was documented by taking pictures with a digital camera. […] Pictures were analysed with the Scion Image image processing software. […] A plot histogram along this line was generated by the software, histograms were printed and peaks (representing sprouts crossing the line) were counted. […] 4 to 5 rings per condition were evaluated. […]

[L-RNA-N] = L-ribonucleotide (mirror-image RNA, Spiegelmer), made from L-configured RNA phosphoramidites (N: the base); {PEG40k} = 40 kDa poly(ethylene glycol)

For orientation: IC50 means the point on the concentration scale where inhibition reaches its midpoint. By Kd is commonly meant a measure of binding affinity in units of concentration.

SDF-1, sequence (P48061 22-89): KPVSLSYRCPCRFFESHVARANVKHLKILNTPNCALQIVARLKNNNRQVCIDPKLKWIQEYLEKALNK
human SDF-1α, sequence (P48061 22-89): as above

As to “GCCGGGGUUAGGGCUAGAAGUCGGCCGGC (chemistry not fully specified) [197-B2-006]”, in data set [1] (vs. 197-B2 and 191-D5-007), the “binding affinity of truncated derivatives of 197-B2” value was “fully persisted”. For the same substance, the “influence of the PEG-moiety on Spiegelmers potency to inhibit SDF-1 induced chemotaxis” value (shortened to “influence … to inhibit SDF-1 induced chemotaxis”) with SDF-1 was “no influence”.

Take “GCUGUGAAAGCAACAUGUCAAUGAAAGGUAGCCGCAGC (aptamer; Made as D-RNA aptamer and L-RNA Spiegelmer, tested form not given here, further chemistry not given here) [192-A10-001]”: in the data set with SDF-1, the IC50 was 0.12 nM. Besides, the Kd in data set [2] was 1.5 nM.

As for “GAGAUAGGGGUUAGGGCUUAAAGUCGGCUGAUUCUC (aptamer; Made as D-RNA aptamer and L-RNA Spiegelmer, tested form not given here, further chemistry not given here) [190-A3-004]”, the Kd is 4.7 nM with human SDF-1α and 4.6 nM in data set [2]. Further, the “binding affinity of derivatives of 190-A3-001” value in data set [1] (compared with 190-A3-001) is listed as “does not have an influence on the binding affinity”. Further, in the data set with SDF-1, the IC50 turned out to be 0.1 nM.

Regarding “AGCGUGGCGAGGUUAGGGCUAGAAGUCGGUCGACACGCU (Made as D-RNA aptamer and L-RNA Spiegelmer, tested form not given here, further chemistry not given here) [191-D5-001]”, the Kd with human SDF-1α was found to be 0.8 nM. Also, in data set [1], the “binding affinity in competitive pull-down binding assay vs. 192-A10-001” value is recorded as “weaker binding affinities”.

With “AGCGUGGUGUGAUCUAGAUGUAUUGGCUGAUCCUAGUCAGGUACGCU (chemistry not fully specified) [193-G2-001]”, in data set [1], the “binding affinity in competitive pull-down binding assay vs. 192-A10-001” value was “superior binding”. Further, the IC50 with SDF-1 was 0.08 nM. In addition, the Kd in data set [2] was found to be 0.3 nM.

With “GCGUGGUGUGAUCUAGAUGUAUUGGCUGAUCCUAGUCAGGUACGC (chemistry not fully specified) [193-G2-012]”, in data set [2], the Kd was 0.3 nM.

On to “GUGCUGCGGGGGUUAGGGCUAGAAGUCGGCCUGCAGCAC (aptamer; chemistry not fully specified) [197-B2]”, for which, in the data set with human SDF-1α, the affinity, expressed as Kd, was 0.9 nM. Further, in data set [1], the “binding affinity in competitive pull-down binding assay vs. 192-A10-001” value is reported as “weaker binding affinities”. For the same substance, in data set [1] (reference 191-D5-007), the “binding affinity in competitive pull-down binding assay vs. 191-D5-007” value was “same binding affinity to SDF-1 as 191-D5-007”.

“CGGGAGGUUAGGGCUAGAAGUCGGUCCCG (chemistry not fully specified) [191-D5-007]” gave a Kd in the data set with human SDF-1α of 0.8 nM. Also, the “binding affinity in competitive pull-down binding assay vs. 191-D5-001” value in data set [1] (reference 191-D5-001) was “somewhat better”. Further, in the data set with SDF-1, the “influence … to inhibit SDF-1 induced chemotaxis” value is “no influence” and the IC50 was 0.1 nM. Moreover, the Kd in data set [2] stood at 2.2 nM.

For “5′-40 kDa-PEG-UAAGGAAACUCGGUCUGAUGCGGUAGCGCUGUGCAGAGCU (all [L-RNA-N], 5' {PEG40k}, backbone not given here) [Control Spiegelmer, reference compound]”, the “blockage of SDF-1 induced sprouting (sprouting index)” value in data set [3] is given as “No blockage”. Moreover, the “inhibition of SDF-1 induced chemotaxis” value with SDF-1 (Jurkat cells, Control Spiegelmer up to 1 μM) is given as “no inhibitory effect”.

As for “GCGUGAAAGCAACAUGUCAAUGAAAGGUAGCCGCGC (chemistry not fully specified) [192-A10-008]”, in data set [1] (vs. 192-A10-001 and 192-A10-008), the “binding affinity of derivatives of 192-A10-001 in competitive pull-down binding assay” value is “same binding affinity as shown for 192-A10-002”. The “influence … to inhibit SDF-1 induced chemotaxis” value with SDF-1 is on record as “no influence”.
